The text below walks through data of patent publication US5273989A, “3,5-disubstituted 2-isoxazolines and isoxazoles, agents containing them and their use” (Hoechst Aktiengesellschaft, priority 1990, dated 1993).

Where a name gives a salt, the structure may show the parent alone. Read-outs that look alike come from different tables or passages of the source.

For data set [1], the system named is high affinity 3H-D-aspartate absorption, synaptic vesicles (synaptosomes) from rat cortex. In words: "High affinity" absorption of 3H-aspartate in a vesicle preparation from rat brain. Particulars: relative to control values (100%). The class given is biochemical. As to the method:
1. "High affinity" absorption of ^3 H-aspartate in a vesicle preparation from rat brain.
Test principle: Fresh synaptic vesicles (synaptosomes) from rat cortex are incubated with buffer solution and ^3 H-D-aspartate and ^3 H-D-aspartate in the vesicles is measured. Preparations which in comparison to control synaptosomes increase the high affinity ^3 H-D-aspartate absorption and those which prevent the loss of ^3 H-D-aspartate by reliberation are regarded as particularly interesting.
Experimental protocol: The experiments for ^3 H-D-aspartate absorption were carried out by the method of Anand et al. (Biochem. Pharmacol., 35 (1986), 1055-1057). The synaptic vesicles were dissected out of cerebral cortex from male Sprague-Dawley rats. The preparations were tested at four concentrations as double samples in parallel with control samples containing buffer. The incubation medium (pH 7.4) contains: 1.2 mM KH2 PO4, 5 mM KCl, 5 mM pyruvate, 1.2 mM glucose, 1.2 mM MgCl2, 114 mM NaCl, 25 mM NaHCO3. For the non-specific ^3 H-D-aspartate absorption, NaCl was replaced by 114 mM choline chloride and NaHCO3 by 25 mM KHCO3. An aliquot of the vesicle suspension (about 25 μg/ml of test solution) was added to the test sample which was temperature controlled at 37° C. and aerated with Carbogen (5% CO2, 95% O2) and preincubated for 2 minutes. The three minutes incubation for the amino acid absorption was started by addition of 50 μl of ^3 H-D-aspartate (specific activity 25 Ci/mmol, 10 pmol/ml of test solution). The vesicles were separated from the incubation medium by filtration and additional washing of the adhering labeled amino acids using a Titertek cell harvester (Flow Laboratories, Meckenheim). The ^3 H-D-aspartate absorption was measured by means of a liquid scintillation counter (Canberra-Packard, Model 1500, Frankfurt).
The preparation activity is indicated in percent of the specific ^3 H-D-aspartate absorption, relative to control values (100%), in Table 3. Adenosine triphosphate (ATP) was used for comparison as the standard substance (see Table 3) and at 1 mM caused a 35% increase in the ^3 H-D-aspartate absorption.

For data set [2], the system named is NMDA receptor-channel complex. Kind of data set: Inhibition of 3H-MK-801 binding to membranes from rat brain. To be noted: preparation concentration 50 μM; 3H-MK801 1 nM. As to the method:
3. Inhibition of ^3 H-MK-801 binding to membranes from rat brain
Test principle: MK-801 is a non-competitive antagonist which binds to ion channels coupled to NMDA receptors (Yoneda et al., Brain Res. 499 (1989), 305). Membranes from whole brain containing preparation and ^3 H-MK-801 are incubated in the test. The binding of ^3 H-MK-801 or its displacement by preparations (antagonists) is determined by radiochemical methods.
Experimental protocol: The binding experiments are carried out by the method of Reynolds et al. (Proc. Natl. Acad. Sci. USA, 84 (1987), 7744). Membrane preparation is first carried out according to Reynolds. Test samples are then pipetted, buffer and test preparation being initially introduced, then preincubated with protein for 2 minutes, and initiated using ^3 H-MK801. The membranes are thawed at 37° C., incubated at 37° C. for 10 minutes and homogenized for 15 seconds at half the maximum speed by means of a Polytron, then used in the cool state again. The incubation medium contains: pH 7.4 Hepes buffer 20 mM, preparations in three concentrations 5 μM, 10 μM and 50 μM, membranes 500 μg/ml of test solution, ^3 H-MK801 1 nM. Incubation is carried out at room temperature (23° C.) for 60 minutes and is then stopped by filtration. For this purpose, glass fiber paper No. 32 from Schleicher and Schull, which had been soaked in 0.03% polyethyleneimine for 30 minutes on the day before the experiment are counted in 4 ml of "Packard 199™" Scintillation fluid (Frankfurt). Tritium is determined by liquid scintillation counting using a Packard 1500.
Calculation of the results: The calculation of the binding in femtomol/mg of protein over a period of 60 min. was carried out using a small calculator (HP-97). If a substance antagonizes the binding, the value decreases. Substance activities are indicated in Table 5 as percentages, i.e. in % binding compared to the control. The activity of the comparison preparation CPP (3-(+)-2-carboxypiperazin-4-ylpropyl-1-phosphonic acid) at 5 μM, 10 μM and 50 μM is always determined to check the test.

The subject of data set [3] is NMDA-stimulated 3H-acetylcholine release, striatum sections. In words: Inhibition of NMDA-stimulated 3H-acetylcholine release from striatum sections of the rat brain. Type of data set: cell-based. To be noted: preparation concentration 10 μM, 25 μmol/l NMDA stimulus, relative to control S2/S1, read-out: Inhibition of 3H-acetylcholine release from striatum sections, Inhibition (%). The protocol:
2. Inhibition of ^3 H-acetylcholine release from striatum sections of the rat brain
Test principle: For the test, fresh striatum sections from rat brain were rinsed with buffer solution in a special chamber and the release of the tritium-labeled acetylcholine was measured after stimulation with NMDA. Preparations having NMDA-antagonist action inhibit acetylcholine release.
Experimental protocol: The superfusion experiments were carried out by the method of Wichman et al. (Naunyn-Schmied. Arch. Pharmacol., 338 (1988), 623-631). Rat brain sections, 0.5 mm thick, were preincubated for 30 min in 2 ml of incubation medium which contains 0.1 μmol/l of ^3 H-choline having a specific activity of 80 Ci/mmol. In each of 6 superfusion chambers, a section was transferred and superfused for 90 min at a rate of 1.5 ml/min. 2 min fraction of the superfusate were continuously collected. Each section was superfused twice with 25 μmol/l of NMDA of two minutes each time in order to stimulate the release of acetylcholine. The first stimulus (S1) takes place between the 54th and the 56th minute and the 2nd stimulus (S2) between the 76th and 78th minute. The incubation medium contained, in mmol/l: NaCl 118, KCl 4.8, CaCl2 1.2, MgSO4 1.2, NaHCO3 25, KH2 PO4 1.2 and glucose 10. The medium was saturated with Carbogen at 37° C. The pH was adjusted to 7.4 NMDA and the novel preparations to be tested were dissolved in superfusion medium. The superfusion was carried out using Mg^2+ -free medium. Tritium from the dissolved sections and from the superfusate was determined by liquid scintillation counting using a Packard® 1900 CA (Frankfurt) at a 50% efficiency.
Calculation of the Results
Basal release and NMDA-stimulated release for S1 and S2 were expressed in %/min of each fraction (Limberger et al, Naunyn Schmied. Arch. Pharmacol. 339 (1988), 53-61).
The value for the stimulated release S2 /S1 was calculated for the control as 0.69±0.09. The value decreases if a substance, such as, for example, the NMDA receptor antagonist CPP (3-(+)-2-carboxypiperazin-4-ylpropyl-1-phosphonic acid) known from the literature inhibited the NMDA-stimulated release. The inhibition of the stimulated release by preparations was calculated in percent, relative to the control value, and is indicated in Table 4.

Another data set relates to NMDA-induced cramps. Kind of data set: Inhibition of NMDA-induced cramps in the mouse. Type of data set: in vivo. To be noted: po, 1 h. As to the method: 4. Inhibition of NMDA-induced-cramps in the mouse
The examples listed below show neuroprotective activity in that they antagonize the cramps induced by NMDA (N-methyl-(D)-aspartate). To this end, intravenous injections of 20-30 mg/kg of NMDA are carried out on a male NMRI (Naval Medical Research Institute) mice of 22-24 g body weight, which leads to stereotypes, clonic cramps and in the majority of cases to mortality. In order to investigate an NMDA-antagonist activity of the test substances, they are administered orally one hour before NMDA. The animals are then observed for the abovementioned symptoms for up to 60 min. The number of animals with clonic cramps and the incidence of mortality, expressed in percent change compared to the control group, is regarded as the evaluation criterion.

Data set [4] in a line: Toxicity (LD50) in the mouse. Particulars: in vivo, iv. The text has this:
As the examples investigated show considerable differences in toxicity compared to the standard substances, the LD50 values are also listed in Table 6,

Data set [5] deals with CA1 pyramidal cells of the hippocampus after forebrain ischemia. In words: Neuroprotection after forebrain ischemia in the gerbil. Particulars: 50 mg/kg p.o., 15 minutes before ischemia.
Method: A 5-minutes' ischemia of the forebrain with subsequent recirculation is produced in 20 male Mongolian gerbils under halothane anesthesia by bilateral closure of the corotid artery by means of aneurysm clips. 7 days later, the animals are decapitated under halothane anesthesia, the brains are fixed by immersion in Carnoy solution and the extent of neuron damage in the CA1 region of the hippocampus is determined "blind" with the aid of a 5-stage histopathological score. The test substance is administered intraperitoneally or orally 15 minutes before ischemia to each group of 10 gerbils. One ischemic control group, also of 10 animals, is treated with the respective solvents per test substance.

`Cl.NCc1cc(CCC(=O)OCc2ccccc2)no1` [Example 5, Benzyl 5-aminomethylisoxazole-3-propionate hydrochloride]: the “Stimulation of the 3H-D-aspartate absorption, Stimulation (%)” value (“Stimulation … (%)” for short) in data set [1] (preparation concentration 10 μM) is reported as 26%. Moreover, the “Inhibition of 3H-MK-801 binding to the NMDA receptor-channel complex, inhibition (%)” value (from here on “Inhibition of 3H-MK-801 binding … (%)”) in data set [2] came out at 78%.
For the compound `CC(C)[C@@H]1CC[C@@H](C)C[C@H]1OC(=O)C1CC(C(=O)O)=NO1` (single isomer, unassigned; (-)) [Example 57, (-)-menthyl-3-carboxy-2-isoxazoline-5-yl-carboxylatedicyclohexylammonium salt], in data set [2], the “Inhibition of 3H-MK-801 binding … (%)” value is given as 43%.
With `CC(C)[C@@H]1CC[C@@H](C)C[C@H]1OC(=O)CCc1cc(CNC(=O)[C@@H](N)Cc2ccccc2)on1` [Example 21, (-)-Menthyl 5-(L-phenylalanylamino)methylisoxazole-3-propionatehydrochloride], the inhibition at 10 µM in data set [3] is 20%. For the same compound, the “Inhibition of 3H-MK-801 binding … (%)” value in data set [2] is recorded as 45%. The inhibition in vivo at 50 mg/kg in the data set with NMDA-induced cramps (50 mg/kg p.o., one hour before NMDA i.v., change compared to control group, read-out: Inhibition of convulsions) turned out to be 30%; with NMDA-induced cramps (read-out: Inhibition of mortality), 40%. The compound also showed an LD50 in data set [4] of 25 to 50 mg/kg.
Consider `O=C(O)c1cc(CNCc2ccccc2)on1` [Example 2, 5-Benzylaminomethyl-3-carboxyisoxazole], for which the “Stimulation … (%)” value in data set [1] (preparation concentration 500 μM) was found to be 12%. Further, the “Inhibition of 3H-MK-801 binding … (%)” value in data set [2] was determined as 10%.
On to `CC(C)[C@H]1CC[C@H](C)C[C@@H]1OC(=O)CCc1cc(C[N+](C)(C)C)on1` [Example 19, (+)-Menthyl 5-trimethylammoniomethylisoxazole-3-propionate iodide], for which, in data set [1] (preparation concentration 100 μM), the “Stimulation … (%)” value worked out at 25%. Further, the inhibition at 10 µM in data set [3] is 16%. In addition, the “Inhibition of 3H-MK-801 binding … (%)” value in data set [2] is recorded as 16%. For the same compound, the “Cell necroses (% change)” value in data set [5] (histopathological score CA1, treated versus control group) was -25 % change. The “Behavior score (% change)” value in data set [5] (treated versus control group) was 0 % change.
Consider `O=C(O)C1CN(CCCP(=O)(O)O)CCN1` (racemic) [CPP, 3-(+)-2-carboxypiperazin-4-ylpropyl-1-phosphonic acid, reference compound], for which, in data set [3], the inhibition at 10 µM amounted to 30%. The “Inhibition of 3H-MK-801 binding … (%)” value in data set [2] was 81%.

Usually inhibition stands for the change of the read-out against control, counted positive when it falls. One may read the LD50 as the dose at which mortality reaches 50%. Read a high LD50 as lower toxicity.
